This note sets out measurements from ChEMBL document CHEMBL3232977, “Medicinal chemistry optimization of antiplasmodial imidazopyridazine hits from high throughput screening of a SoftFocus kinase library: part 1” (J Med Chem, 2014).

In brackets after ≈: the same amount, converted by molar mass. A value given as a limit tells only on which side of the number the result lay.

Series [1] in a line: physchem. Conditions: 0.01 M HCl, pH 2.
Series [2] in a line: physchem. As to conditions: buffer, pH 2.
Series [3] relates to Plasmodium falciparum. Nature of the series: microbe, parasite or virus in culture. Conditions: K1.
Series [4] relates to Plasmodium falciparum. Nature of the series: microbe, parasite or virus in culture. Conditions: NF54.
The subject of series [5] is Plasmodium berghei. As to conditions: dose 30 mg/kg; route oral.
For series [6], the system named is Plasmodium berghei. Conditions: dose 30 mg/kg; route oral. The source holds these as a separate data set.
Series [7] can be described thus: Solubility of the compound in 0.01M HCl at pH 2.5. The series is classed as physicochemical.
For series [8], the system named is Plasmodium berghei. Nature of the series: Antimalarial activity against GFP-transfected Plasmodium berghei ANKA infected in mouse assessed as mean survival days at 40 mg/kg, po qd for 4 days. The series is classed as functional.
Series [9] is described as follows: Apparent Cmax in GFP-transfected Plasmodium berghei ANKA infected mouse at 40 mg/kg, po qd for 4 days. The series is classed as ADME, organism-based. Details: dose 40 mg/kg, route oral. Conditions: in vivo.
The subject of series [10] is Plasmodium berghei. In words: Antimalarial activity against GFP-transfected Plasmodium berghei ANKA infected in mouse assessed as reduction of parasitemia at 40 mg/kg, po qd for 4 days. The series is classed as functional.
Series [11] relates to Plasmodium falciparum.
Series [12] concerns Plasmodium falciparum. Nature of the series: Antimalarial activity against Plasmodium falciparum infected in po dosed SCID mouse assessed as reduction of parasitemia administered qd for 4 days. The series is classed as functional. As to conditions: 96 h.
Series [13] in a line: Apparent half life in Sprague-Dawley rat at 3.6 mg/ml, iv. The series is classed as ADME, organism-based. Conditions: in vivo, read-out: t1/2(app) (converted).
The nature of series [14]: Apparent AUC in GFP-transfected Plasmodium berghei ANKA infected mouse at 40 mg/kg, po qd for 4 days. The series is classed as ADME, organism-based. Details: dose 40 mg/kg, route oral. Conditions: in vivo.
A short description of series [15]: AUC (0 to infinity) in Sprague-Dawley rat at 3.6 mg/ml, po. The series is classed as ADME, organism-based. Details: dose 3.6 mg/ml, time infinity, route oral. Conditions: plasma.
The next series has as its system Plasma. In words: Average plasma concentration in GFP-transfected Plasmodium berghei ANKA infected mouse at 40 mg/kg, po qd for 4 days measured after 24 hrs. The series is classed as ADME, organism-based. More on the design: dose 40 mg/kg, route oral. Conditions: in vivo.
The test system of series [16] is Plasmodium berghei. In words: Antimalarial activity against GFP-transfected Plasmodium berghei ANKA infected in po dosed mouse assessed as reduction of parasitemia administered qd for 4 days. The series is classed as functional. As to conditions: 96 h.
Series [17] in a line: Plasma total clearance in Sprague-Dawley rat at 3.6 mg/ml, iv. The series is classed as ADME, organism-based.
A short description of series [18]: Tmax in Sprague-Dawley rat at 3.6 mg/ml, po. Conditions: in vivo. The series is classed as ADME, organism-based.
Series [19] in a line: Cmax in Sprague-Dawley rat at 3.6 mg/ml, po. The series is classed as ADME, organism-based. More on the design: dose 3.6 mg/ml, route oral. As to conditions: in vivo.
Series [20] can be described thus: Oral bioavailability in Sprague-Dawley rat at 3.6 mg/ml. The series is classed as ADME, organism-based. As to conditions: in vivo.
The nature of series [21]: Volume of distribution at steady state in Sprague-Dawley rat at 3.6 mg/ml, iv. The series is classed as ADME, organism-based. As to conditions: in vivo, read-out: Vdss.
Series [22] can be described thus: Apparent half life in Sprague-Dawley rat at 3.6 mg/ml, po. The series is classed as ADME, organism-based. Conditions: in vivo, read-out: t1/2(app) (converted).
Series [23] can be described thus: AUC (0 to infinity) in Sprague-Dawley rat at 3.6 mg/ml, iv. The series is classed as ADME, organism-based. More on the design: dose 3.6 mg/ml, route intravenous, time infinity. As to conditions: plasma.

As to `CS(=O)(=O)c1ccc(-c2cnc3ccc(-c4cccc(C(=O)NCCO)c4)nn23)cc1`, the solubility in the series “physchem [1]” is more than 100 µg/mL; in “physchem [2]”, 50 µg/mL (≈ 115 µM). The figures for the IC50 in the series on Plasmodium falciparum [3] and in the series with Plasmodium falciparum [4] were 78 nM and 99 nM, respectively.
Turning to `C[C@H]1[C@H](OC(=O)CCC(=O)O)O[C@@H]2O[C@@]3(C)CC[C@H]4[C@H](C)CC[C@@H]1[C@@]24OO3` [ARTESUNATE], the MSD in the series on Plasmodium berghei [5] is 10 days; in the series with Plasmodium berghei [6] it was 99 days. Besides, the values for the concentration for half-maximal inhibition (IC50) with Plasmodium falciparum [3] and in the series with Plasmodium falciparum [4] were 3 nM and 4 nM, respectively.
As for `CS(=O)(=O)c1ccc(-c2cnc3ccc(-c4cccc(C(=O)N5CCNCC5)c4)nn23)cc1`, the solubility (in “physchem [1]”; in [7]) was more than 100 µg/mL throughout. The MSD with Plasmodium berghei [8] is 4 days; with Plasmodium berghei [10] it was less than 40 days. Moreover, the maximum concentration (Cmax) in series [9] turned out to be 10 nM. The figures for the IC50 in the series on Plasmodium falciparum [3] and in the series with Plasmodium falciparum [4] were 11 nM and 15 nM, respectively.
`CC(C)(C)c1cccc(-c2ccc3ncc(-c4ccc(S(C)(=O)=O)cc4)n3n2)c1` came in with a solubility in the series “physchem [1]” of more than 100 µg/mL. The IC50 entry with Plasmodium falciparum [11] was “ND(Insoluble)”.
The compound `CS(=O)(=O)c1ccc(-c2cnc3ccc(-c4cccc(S(N)(=O)=O)c4)nn23)cc1` gave a solubility in the series “physchem [1]” of more than 100 µg/mL. In addition, the MSD was 4 days in the series on Plasmodium berghei [8] and less than 40 days with Plasmodium berghei [10]. Further, in series [9], the Cmax amounted to 20 nM. For the same compound, the half-inhibitory concentration (IC50) in the series with Plasmodium falciparum [3] and with Plasmodium falciparum [4] was 4.4 nM each time.
For `CS(=O)(=O)c1ccc(-c2cnc3ccc(-c4cccc(S(C)(=O)=O)c4)nn23)cc1`, the solubility in the series “physchem [1]” is more than 100 µg/mL. Further, the ED90 in the series with Plasmodium falciparum [12] amounted to 1.5 mg/kg; in the series with Plasmodium berghei [16], 15 mg/kg. Besides, the half-life in series [13] was 7.15 h; in [22], 7.08 h. In addition, the AUC at 96 h in series [14] was found to be 27.8 µM·h. For the same compound, the values for the AUC(0-inf) in series [15] and in series [23] were 18.9 µM·h and 24.3 µM·h, respectively. In the series with Plasma, this compound had a Cave of 1200 nM. Also, the 50% effective dose (ED50) with Plasmodium berghei [16] was 1.4 mg/kg. Further, the MSD in the series with Plasmodium berghei [8] is 7 days; in the series with Plasmodium berghei [10] it was 98 days. Further, in series [17], the clearance is 5.77 mL/min/kg. Besides, in series [18], the Tmax was found to be 3 h. Besides, the Cmax in series [19] worked out at 1900 nM; in [9] it was 2200 nM. Further, the bioavailability in [20] is 77.7%. The Vd in series [21] came out at 3.01 L/kg. Further, the IC50 amounted to 6.3 nM in the series with Plasmodium falciparum [3] and 7.3 nM in the series on Plasmodium falciparum [4].
For `O[C@@H](c1cc(C(F)(F)F)nc2c(C(F)(F)F)cccc12)[C@H]1CCCCN1` (relative stereo) [(S,R)-MEFLOQUINE], the MSD came out at 29 days in the series with Plasmodium berghei [5] and 99.9 days in the series on Plasmodium berghei [6]. The values for the concentration for half-maximal inhibition (IC50) in the series on Plasmodium falciparum [3] and with Plasmodium falciparum [4] were 8.4 nM and 12 nM, respectively.
Regarding `CN1CCN(C(=O)c2cccc(-c3ccc4ncc(-c5ccc(S(C)(=O)=O)cc5)n4n3)c2)CC1`, the solubility in “physchem [1]” is more than 100 µg/mL; in “physchem [2]”, 50 µg/mL (≈ 105 µM). For the same compound, the IC50 in the series with Plasmodium falciparum [3] was found to be 5.5 nM; in the series with Plasmodium falciparum [4], 6.1 nM.
In the case of `Cc1ccc(-c2ccc3ncc(-c4ccc(S(C)(=O)=O)cc4)n3n2)cc1C(F)(F)F`, the solubility in the series “physchem [1]” was more than 100 µg/mL. Further, the MSD with Plasmodium berghei [8] is 7 days; with Plasmodium berghei [10], 79 days. The half-inhibitory concentration (IC50) in the series with Plasmodium falciparum [3] stood at 26 nM; with Plasmodium falciparum [4], 32 nM.

The term solubility denotes the dissolved amount per volume that the medium holds. A low value points to little dissolved substance. As usually defined, the IC50 is the concentration that gives 50% inhibition. Read a low IC50 as higher potency. As a reminder, the Cmax is the highest concentration seen after dosing. As a reminder, the AUC is concentration integrated over time. Broadly, the AUC(0-inf) is total exposure, with the tail of the curve extrapolated. In general, ED50 refers to the dose that gives a 50% effect, or the effect in half of the subjects. The term clearance denotes the rate of elimination divided by the concentration. What is called Tmax is the time from dosing to the highest level. In general, bioavailability refers to the share of a dose that reaches the circulation, judged against a reference dose that is usually intravenous. A lower bioavailability goes with poor availability.
